In patent US20210244028A1, “TREATMENT FOR REMOVING ECTOPARASITES FROM FISH” (priority 2018, published 2021):
Where “and” joins values, the source holds several entries; their conditions need not be identical. Equal values may be shown once. Read-outs that look alike come from different tables or passages of the source.

Legend:
[1] = tested on: Lepeophtheirus salmonis; conditions: 20 ppm (nitenpyram 19 ppm); for percentage responsiveness for sea lice recovered from fish at the end of the treatment period: 24 h post-treatment; for percentage responsiveness of lice recovered from tank at treatment end at 24 hours post-treatment: lice knocked off fish
Protocol: Lice were monitored continuously for the duration of the exposure and behavioural observations noted, including detachment of lice from fish. At the end of exposure lice were either removed from the tank or fish, placed into small vented plastic screw-top containers (125 mL, LDPE, 25 mm hole drilled into lid and secured with 200 μm mesh), and transferred to a clean tank supplied with filtered sea water and held there for 24 h. Lice which had detached from fish were kept separate from those that had not detached.
24 h post-treatment lice were removed from the screw-top containers to check if they were alive and, if so, if they were responsive. Categories were defined as follows: alive—movement detected; responsive—alive and actively avoids stimulation in a coordinated manner; dead—no movement detected.
Lice defined as responsive could potentially re-attach to a fish. After assessment lice were transferred to 70% alcohol in case determination of instar and sex was required.

[2] = tested on: Atlantic salmon; assay: Fish mortality and behaviour during bath treatment (Example 7); format: in vivo; conditions: 20 ppm to 200 ppm, 3 to 60 minutes
Protocol: To determine the concentration- and time-dependence of imidacloprid treatment in vivo, Atlantic salmon (average of 320.9 g) were challenged with imidacloprid in seawater ([…] salinity) at 12° C. The water level in the tank was lowered and aeration was employed during administration of the active. The salmon louse copepodid culture was counted and adjusted to obtain a target level of around 40 copepodids per fish in the challenge tank at each challenge time point.
Fish behaviour/appearance was assessed in vivo during each test. Any changes in behaviour and/or appearance including mortality were recorded.

[3] = tested on: azamethiphos- and deltamethrin-resistant sea lice; assay: In vitro bath exposure of isolated sea lice (Example 6); conditions: 60 minutes exposure; for % effect: registered approx. 20 h after end of exposure
Protocol: A trial was performed to ensure there was no cross-resistance between azamethiphos- and deltamethrin-resistant sea lice and neonicotinoids. Both pre-adult and adult stages (mobile stages) of both sexes were used, and they were equally distributed among groups. The sea lice were exposed to imidacloprid for 60 minutes, azamethiphos for 60 minutes and deltamethrin for 30 minutes in one litre baths at a range of concentrations (Tables 6, 7 and 8). The sea lice were transferred to clean aerated seawater after treatment. The temperature of the seawater during the experiment was 12° C., but during exposure the temperature raised to approx. 14° C. in regimes exposed for 60 min. (imidacloprid and azamethiphos) and to 13° C. for the regime exposed in 30 minutes (deltamethrin).
The numbers of live and immobilised (including killed) lice in each regime were registered approximately 20 h after end of exposure. Each louse was individually investigated.

[4] = tested on: farmed Atlantic salmon; assay: Observation of fish during field well boat treatment (Example 4); format: in vivo; conditions: 20 ppm, 60 minutes
Protocol: The effectiveness of imidacloprid against pre-adult and adult stages of L. salmonis and Caligus sp. infections on farmed Atlantic salmon was investigated by performing pre- and post-treatment sea lice counts on salmon undergoing a treatment with imidacloprid. This trial was conducted at a commercial salmon farm in Norway. The salmon were pumped onto a well boat and were exposed to 20 ppm imidacloprid for 60 minutes. The average weight of the salmon was 3.5 kg and the average number of salmon per pen was 180,000. 30 fish per pen were assessed for L. salmonis and Caligus sp., and the number of each L. salmonis life stage found was recorded. This was performed within 24 hours prior to treatment, and within 24 hours after treatment.
The numbers of sea lice observed per fish for this trial for each of the four tested pens according to sea lice life cycle state, pre- or post-administration of active are presented in Table 5.

[5] = tested on: pre-adult and adult sea lice; assay: Timescale of effect on sea lice on killed salmon suspended in treatment water (Example 5)
Protocol: To determine the timescale of the effect of imidacloprid, salmon infected with pre-adult and adult sea lice were removed from a stock tank and killed using a sharp blow to the head.
For fish exposed to 0 ppm imidacloprid (negative controls), observations were made for 60 minutes. […] Three fish per treatment group were tested.
Observations on the time at which lice left the host, and the sex and stage of the sea louse was noted. Any lice that left the host were transferred to clean sea water immediately. Furthermore, any lice remaining on the host at the end of the exposure period were removed from the host and transferred to clean sea water.
Lice were observed both shortly after and approximately 2 hours after the end of the exposure period.
The ratio of male to female sea lice was around 50:50. The water temperature was around 12° C.

[6] = tested on: fish; assay: Safety of imidacloprid treatment on fish (Example 8); format: in vivo; conditions: 65 ppm
Protocol: The safety of the imidacloprid treatment on fish was assessed. Fish held in a flow through tank containing 271.8 L of sea water were exposed to 65 ppm w/v of the active ingredient imidacloprid. 17.67 g of imidacloprid was dissolved in 100 ml of dimethyl sulfoxide (DMSO) and the solution was added to approximately 900 ml sea water and mixed. The flow on the through tank was disabled and the solution of imidacloprid was added.
The fish were exposed to 65 ppm imidacloprid in static water for 1 hour and observed for behavioural changes at 5-10 minute intervals. The fish were then held for a further 7 days before being terminated.

O=[N+]([O-])NC1=NCCN1Cc1ccc(Cl)nc1 [imidacloprid]
percentage responsiveness for sea lice recovered from fish at the end of the treatment period ([1]; exposure 5 min): 100% | percentage responsiveness for sea lice recovered from fish at the end of the treatment period ([1]; exposure 10 min): 100% | percentage responsiveness of lice recovered from tank at treatment end at 24 hours post-treatment ([1]; exposure 10 min): 100% | percentage responsiveness for sea lice recovered from fish at the end of the treatment period ([1]; exposure 15 min): 45% | percentage responsiveness of lice recovered from tank at treatment end at 24 hours post-treatment ([1]; exposure 15 min): 33% | percentage responsiveness for sea lice recovered from fish at the end of the treatment period ([1]; exposure 30 min): 50% | percentage responsiveness of lice recovered from tank at treatment end at 24 hours post-treatment ([1]; exposure 30 min): 10% | percentage responsiveness for sea lice recovered from fish at the end of the treatment period ([1]; exposure 60 min): no lice responsive | percentage responsiveness for sea lice recovered from fish at the end of the treatment period ([1]; exposure 60 min, listed as Imidacloprid): 0% | percentage responsiveness of lice recovered from tank at treatment end at 24 hours post-treatment ([1]; exposure 60 min): 0% | Fish mortality in the trial [2]: No fish died | % effect ([3]; 5 ppm): 30% | % effect ([3]; 10 ppm): 40% and 50% | % effect ([3]; 15 ppm): 100% | % effect ([3]; 20 ppm): 100% | % effect ([3]; 30 ppm): 100% | estimated EC50 value ([3]; immobilisation approx. 20 h after exposure): 7.6 ppm | Fish behaviour observed throughout treatment [4]: no adverse behaviours seen | Lice considered dead at 30 minutes post-exposure ([5]; 20 mg/L, of 49 lice exposed): two | Lice considered dead at 2 hours p.e. ([5]; 50 ppm): 14 | Lice considered dead at 30 minutes ([5]; 50 ppm, of 21 lice exposed): four | Lice considered dead at 2 hours p.e. ([5]; 100 ppm): 17/28 | Lice considered dead at the end of the exposure period ([5]; 100 ppm, of 28 lice exposed): four | Lice considered dead 2 hours post-exposure ([5]; 200 ppm, of 26 lice exposed): Six | Lice considered dead at the end of the exposure period ([5]; 200 ppm, of 26 lice exposed): four | Lice considered dead 30 minutes p.e. ([5]; 500 ppm): Six out of 20 | Lice considered dead at 2 hours p.e. ([5]; 500 ppm): 15/20 | Lice that left the host within the first 9 minutes ([5]; 500 ppm, dead host, around 12° C.): around 70% | Lice that left the host within the first 15 minutes ([5]; between 20 and 200 ppm, dead host, around 12° C.): around 50% | Adverse reactions during a further 7 days ([6]; 1 hour exposure, 7 days monitoring): no adverse reactions | External pathologies on termination ([6]; 1 hour exposure, terminated after 7 days): no external pathologies | Fish behaviour during the exposure period ([6]; static water, 1 hour): No observable changes in fish behaviour
